# Reference: ChEMBL document CHEMBL1147193, “New 5-substituted thiazolo[3,2-b][1,2,4]triazol-6-ones: synthesis and anticancer evaluation” (2007)
# Experiments:
# Type in all cases: functional
# [1] = system: A549; experiment: Growth inhibition of human A549/ATCC cells after 48 hrs by SRB protein assay; conditions: A549, 48 h
# [2] = system: CCRF-CEM; experiment: Growth inhibition of human CCRF-CEM cells after 48 hrs by SRB protein assay
# [3] = system: UACC-257; experiment: Growth inhibition of human UACC257 cells after 48 hrs by SRB protein assay; conditions: UACC-257, 48 h
# [4] = system: M14; experiment: Growth inhibition of human M14 cells after 48 hrs by SRB protein assay; conditions: M14, 48 h
# [5] = system: PC-3; experiment: Growth inhibition of human PC3 cells after 48 hrs by SRB protein assay; conditions: PC-3, 48 h
# [6] = system: OVCAR-3; experiment: Growth inhibition of human OVCAR-3 cells after 48 hrs by SRB protein assay; conditions: OVCAR-3, 48 h
# [7] = system: NCI-H460; experiment: Anticancer activity against human NCI-H460 cells assessed as growth of cells at 100 uM relative to untreated cells
# [8] = system: RPMI-8226; experiment: Growth inhibition of human RPMI8226 cells after 48 hrs by SRB protein assay; conditions: RPMI-8226, 48 h
# [9] = system: UO-31; experiment: Growth inhibition of human UO31 cells after 48 hrs by SRB protein assay; conditions: UO-31, 48 h
# [10] = system: SW-620; experiment: Growth inhibition of human SW620 cells after 48 hrs by SRB protein assay; conditions: SW-620, 48 h
# [11] = system: SK-MEL-28; experiment: Growth inhibition of human SK-MEL-28 cells after 48 hrs by SRB protein assay; conditions: SK-MEL-28, 48 h
# [12] = system: SK-MEL-5; experiment: Growth inhibition of human SK-MEL-5 cells after 48 hrs by SRB protein assay; conditions: SK-MEL-5, 48 h
# [13] = Growth inhibition of human MDA-MB-231/ATCC cells after 48 hrs by SRB protein assay; conditions: MDA-MB-231, 48 h
# [14] = system: NCI-H522; experiment: Growth inhibition of human NCI-H522 cells after 48 hrs by SRB protein assay; conditions: NCI-H522, 48 h
# [15] = system: HT-29; experiment: Growth inhibition of human HT29 cells after 48 hrs by SRB protein assay; conditions: HT-29, 48 h
# [16] = system: COLO 205; experiment: Growth inhibition of human COLO205 cells after 48 hrs by SRB protein assay; conditions: COLO 205, 48 h
# [17] = system: HCT-116; experiment: Growth inhibition of human HCT116 cells after 48 hrs by SRB protein assay; conditions: HCT-116, 48 h
# [18] = system: OVCAR-4; experiment: Growth inhibition of human OVCAR4 cells after 48 hrs by SRB protein assay; conditions: OVCAR-4, 48 h
# [19] = system: OVCAR-8; experiment: Growth inhibition of human OVCAR8 cells after 48 hrs by SRB protein assay; conditions: OVCAR-8, 48 h
# [20] = system: NCI/ADR-RES; experiment: Growth inhibition of human NCI/ADR-RES cells after 48 hrs by SRB protein assay
# [21] = system: HOP-62; experiment: Growth inhibition of human HOP62 cells after 48 hrs by SRB protein assay; conditions: HOP-62, 48 h
# [22] = system: SN12C; experiment: Growth inhibition of human SN12C cells after 48 hrs by SRB protein assay
# [23] = system: ACHN; experiment: Growth inhibition of human ACHN cells after 48 hrs by SRB protein assay
# [24] = system: U-251; experiment: Growth inhibition of human U251 cells after 48 hrs by SRB protein assay; conditions: U-251, 48 h
# [25] = system: MCF7; experiment: Growth inhibition of human MCF7 cells after 48 hrs by SRB protein assay; conditions: MCF7, 48 h
# [26] = system: HCC 2998; experiment: Growth inhibition of human HCC2998 cells after 48 hrs by SRB protein assay; conditions: HCC 2998, 48 h
# [27] = system: SK-MEL-2; experiment: Growth inhibition of human SK-MEL-2 cells after 48 hrs by SRB protein assay; conditions: SK-MEL-2, 48 h
# [28] = system: MDA-MB-435; experiment: Growth inhibition of human MDA-MB-435 cells after 48 hrs by SRB protein assay; conditions: MDA-MB-435, 48 h
# [29] = system: TK-10; experiment: Growth inhibition of human TK10 cells after 48 hrs by SRB protein assay; conditions: TK-10, 48 h
# [30] = system: NCI-H322M; experiment: Growth inhibition of human NCI-H322M cells after 48 hrs by SRB protein assay
# [31] = system: NCI-H460; experiment: Growth inhibition of human NCI-H460 cells after 48 hrs by SRB protein assay; conditions: NCI-H460, 48 h
# [32] = system: MCF7; experiment: Anticancer activity against human MCF7 cells assessed as growth of cells at 100 uM relative to untreated cells
# [33] = system: Hs-578T; experiment: Growth inhibition of human HS578T cells after 48 hrs by SRB protein assay
# [34] = system: SF-295; experiment: Growth inhibition of human SF295 cells after 48 hrs by SRB protein assay; conditions: SF-295, 48 h
# [35] = system: KM12; experiment: Growth inhibition of human KM12 cells after 48 hrs by SRB protein assay; conditions: KM12, 48 h
# [36] = system: OVCAR-5; experiment: Growth inhibition of human OVCAR5 cells after 48 hrs by SRB protein assay; conditions: OVCAR-5, 48 h
# [37] = system: BT-549; experiment: Growth inhibition of human BT549 cells after 48 hrs by SRB protein assay; conditions: BT-549, 48 h
# [38] = Growth inhibition of human MALME 3M cells after 48 hrs by SRB protein assay
# [39] = system: T47D; experiment: Growth inhibition of human T47D cells after 48 hrs by SRB protein assay
# [40] = system: NCI-H226; experiment: Growth inhibition of human NCI-H226 cells after 48 hrs by SRB protein assay; conditions: NCI-H226, 48 h
compound,measurement,setting,value
O=C(CC1Sc2ncnn2C1=O)Nc1ccc(Br)cc1 (stereo not drawn),GI50,[1],35.5 µM
same,TGI,[1]; read-out: Log TGI (converted),> 100 µM
same,GI50,[2],21.4 µM
same,TGI,[2]; read-out: Log TGI (converted),55 µM
same,GI50,[3],17.4 µM
same,TGI,[3]; read-out: Log TGI (converted),33.1 µM
same,GI50,[4],15.8 µM
same,TGI,[4]; read-out: Log TGI (converted),29.5 µM
same,GI50,[5],26.9 µM
same,TGI,[5]; read-out: Log TGI (converted),95.5 µM
same,GI50,[6],20 µM
same,TGI,[6]; read-out: Log TGI (converted),37.2 µM
same,Activity,[7],0%
same,GI50,[8],23.4 µM
same,TGI,[8]; read-out: Log TGI (converted),64.6 µM
same,GI50,[9],18.6 µM
same,TGI,[9]; read-out: Log TGI (converted),38 µM
same,GI50,[10],44.7 µM
same,TGI,[10]; read-out: Log TGI (converted),> 100 µM
same,GI50,[11],23.4 µM
same,TGI,[11]; read-out: Log TGI (converted),70.8 µM
same,GI50,[12],18.6 µM
same,TGI,[12]; read-out: Log TGI (converted),38.9 µM
same,GI50,[13],17 µM
same,TGI,[13]; read-out: Log TGI (converted),36.3 µM
same,GI50,[14],20.4 µM
same,TGI,[14]; read-out: Log TGI (converted),57.5 µM
same,GI50,[15],28.2 µM
same,TGI,[15]; read-out: Log TGI (converted),> 100 µM
same,GI50,[16],17.8 µM
same,TGI,[16]; read-out: Log TGI (converted),37.2 µM
same,GI50,[17],15.8 µM
same,TGI,[17]; read-out: Log TGI (converted),29.5 µM
same,GI50,[18],31.6 µM
same,TGI,[18]; read-out: Log TGI (converted),> 100 µM
same,GI50,[19],18.2 µM
same,TGI,[19]; read-out: Log TGI (converted),38 µM
same,GI50,[20],25.1 µM
same,TGI,[20]; read-out: Log TGI (converted),70.8 µM
same,GI50,[21],> 100 µM
same,TGI,[21]; read-out: Log TGI (converted),> 100 µM
same,GI50,[22],22.9 µM
same,TGI,[22]; read-out: Log TGI (converted),63.1 µM
same,GI50,[23],15.1 µM
same,TGI,[23]; read-out: Log TGI (converted),28.2 µM
same,GI50,[24],16.6 µM
same,TGI,[24]; read-out: Log TGI (converted),31.6 µM
same,GI50,[25],26.9 µM
same,TGI,[25]; read-out: Log TGI (converted),74.1 µM
same,GI50,[26],> 100 µM
same,TGI,[26]; read-out: Log TGI (converted),> 100 µM
same,GI50,[27],66.1 µM
same,TGI,[27]; read-out: Log TGI (converted),> 100 µM
same,GI50,[28],31.6 µM
same,TGI,[28]; read-out: Log TGI (converted),> 100 µM
same,GI50,[29],17.4 µM
same,TGI,[29]; read-out: Log TGI (converted),31.6 µM
same,GI50,[30],> 100 µM
same,TGI,[30]; read-out: Log TGI (converted),> 100 µM
same,GI50,[31],> 100 µM
same,TGI,[31]; read-out: Log TGI (converted),> 100 µM
same,Activity,[32],0%
same,GI50,[33],7.24 µM
same,TGI,[33]; read-out: Log TGI (converted),20 µM
same,GI50,[34],> 100 µM
same,TGI,[34]; read-out: Log TGI (converted),> 100 µM
same,GI50,[35],> 100 µM
same,TGI,[35]; read-out: Log TGI (converted),> 100 µM
same,GI50,[36],16.2 µM
same,TGI,[36]; read-out: Log TGI (converted),29.5 µM
same,GI50,[37],> 100 µM
same,TGI,[37]; read-out: Log TGI (converted),> 100 µM
same,GI50,[38],14.5 µM
same,TGI,[38]; read-out: Log TGI (converted),31.6 µM
same,GI50,[39],18.2 µM
same,TGI,[39]; read-out: Log TGI (converted),45.7 µM
same,GI50,[40],20 µM
same,TGI,[40]; read-out: Log TGI (converted),45.7 µM
